Results taken from US12649735B2 (HAIHE BIOPHARMA CO., LTD., priority 2019, dated 2026).

How the values were obtained:
[1] = target: T1, bromodomain protein BRD4 BD1 (Homo sapiens, UniProt O60885); assay: HTRF in vitro assay, inhibitory activity against BRD4 BD1; type: binding; conditions: BRD4(1) 30 nM in final system
T1 construct: The proteins BRD4 BD1/BD2 used in the experiment were purchased from Active Motif Company (Cat. No. 31380/31446); purchased Active Motif 31380
Procedure: In this example, the half inhibitory activity (IC50) of the compounds of the present invention against the bromodomain protein BRD4 BD1 was determined.
(§1) The inhibitory activity of the compound against BRD4 BD1 was determined by using Homogeneous Time-Resolved Fluorescence (HTRF).
(§2) The proteins BRD4 BD1/BD2 used in the experiment were purchased from Active Motif Company (Cat. No. 31380/31446); Streptavidin XL-665 (#610SAXLA) and EPIgeneous Binding Domain Kit A (#62BDAPEG) were purchased from Cisbio Bioassays Company, [Lys(5,8,12,16)Ac]H4(1-21)-biotin (#64989), and [Lys(5,8,12,16)Ac]H4(1-25) were products of AnaSpec company; OTX015 and ABBV-075 were purchased from SelleckChem. 384 Well ProxiPlate (#6008280) was purchased from PerkinElmer. The multifunctional microplate reader used for the experimental was a product of PerkinElmer, model: Envision 2104. The experimental water was Millipore-Q pure water.
(§3) 10 mM of stock solution of compound in DMSO was diluted to 1 mM with DMSO and stored, and then diluted 10 times with Binding Domain dilution buffer (purchased from Cisbio Bioassays) for use (the concentration of DMSO in the final system was […]), 1:5 gradient dilution, a total of 5 concentrations.
(§4) 4. Test Method: 1 Batch, 2 Duplicate Wells
(§5) • 1) 5 μL of test compound was transferred to 45 μL of Binding Domain dilution buffer. • 2) 2 μL of 10× compound (4 μL Binding Domain dilution buffer: positive control; 6 μL enzyme buffer (purchased from Cisbio Bioassays): negative control) was transferred to the reaction plate. • 3) 4 μL of 5×BRD4(1) or BRD4(2) (30 nM in final system) was added to the reaction plate. • 4) 4 μL of 5×[Lys(5,8,12,16)Ac]H4(1-21)-biotin was added to the reaction plate, and the plate was covered with a film, and incubated at 37° C. for 30 min. • 5) A detection mixture of SA-XL665 (2×) and anti-H3K9me0-Eu(K) (2×) was prepared in detection buffer (purchased from Cisbio Bioassays). • 6) 10 μL of detection mixture (2×) was added to each well, and incubated for 3 h at room temperature, and the mp value was read using a multi-plate reader Envision. The parameters were set as follows.

[2] = target: T2, bromodomain protein BRD4 BD2 (Homo sapiens, UniProt O60885); assay: HTRF in vitro assay, inhibitory activity against BRD4 BD2; type: binding; conditions: BRD4(2) 30 nM in final system
T2 construct: The proteins BRD4 BD1/BD2 used in the experiment were purchased from Active Motif Company (Cat. No. 31380/31446); purchased Active Motif 31446
Procedure: as §1, §2, §3, §4, §5

4-(methoxy(phenyl)methyl)-6-methyl-2-(1-(oxetan-3-yl)-1H-pyrazol-4-yl)-1-tolyl-1,6-dihydro-7H-pyrrolo[2,3-c]pyridin-7-one [Compound A70]
IC50 [1]: 100 to 1000 nM | IC50 [2]: 10 to 100 nM

4-diphenylmethyl-N-ethylamino-6-methyl-7-oxo-6,7-dihydro-1H-pyrrolo[2,3-c]pyridin-2-carboxamide [Compound A29]
IC50 [1]: 100 to 1000 nM | IC50 [2]: 10 to 100 nM

6-methyl-7-carbonyl-4-(1-phenylethyl)-N-(1H-pyrazol-4-yl)-6,7-dihydro-1H-pyrrolo[2,3]pyridin-2-carboxamide [Compound A7]
IC50 [1]: 100 to 1000 nM | IC50 [2]: ≤ 10 nM

6-methyl-7-carbonyl-4-(1-phenylethyl)-N-(tetrahydro-2H-pyran-4-yl)-6,7-dihydro-1H-pyrrolo[2,3-c]pyridin-2-carboxamide [Compound A6]
IC50 [1]: 100 to 1000 nM | IC50 [2]: ≤ 10 nM

Cn1cc(Cc2ccccc2)c2c[nH]cc2c1=O [Compound A1]
IC50 [1]: 100 to 1000 nM | IC50 [2]: 10 to 100 nM

Cn1cc2c(Cc3ccccc3)cn(C)c(=O)c2c1 [Compound A2]
IC50 [1]: 100 to 1000 nM | IC50 [2]: 10 to 100 nM

CCNC(=O)n1cc2c(Cc3ccccc3)cn(C)c(=O)c2c1 [Compound A3, 7-benzyl-N-ethyl-5-methyl-4-oxo-4,5-dihydro-2H-pyrrolo[3,4-c]pyridin-2-carboxamide]
IC50 [1]: 100 to 1000 nM | IC50 [2]: 10 to 100 nM

CCNC(=O)n1cc2c(C(OC)c3ccccc3)cn(C)c(=O)c2c1 (centres unmarked) [Compound A4, N-ethyl-7-(methoxy(phenyl)methyl)-5-methyl-4-oxo-4,5-dihydro-2H-pyrrolo[3,4-c]pyridin-2-carboxamide]
IC50 [1]: 100 to 1000 nM | IC50 [2]: 10 to 100 nM

CCNC(=O)c1cc2c(C(C)c3ccccc3)cn(C)c(=O)c2[nH]1 (centres unmarked) [Compound A5, N-ethyl-6-methyl-7-oxo-4-(1-phenethyl)-6,7-dihydro-1H-pyrrolo[2,3-c]pyridin-2-carboxamide]
IC50 [1]: 100 to 1000 nM | IC50 [2]: ≤ 10 nM

CC(c1ccccc1)c1cn(C)c(=O)c2[nH]c(C(=O)NC3CC3)cc12 (centres unmarked) [Compound A8, N-cyclopropyl-6-methyl-7-oxo-4-(1-phenethyl)-6,7-dihydro-1H-pyrrolo[2,3-c]pyridin-2-carboxamide]
IC50 [1]: 100 to 1000 nM | IC50 [2]: ≤ 10 nM

Cn1cc(C(CCO)c2ccccn2)c2cc(C(=O)NC3CC3)[nH]c2c1=O (centres unmarked) [Compound A9, N-cyclopropyl-4-(3-hydroxy-1-(pyridin-2-yl)propyl)-6-methyl-7-oxo-6,7-dihydro-1H-pyrrolo[2,3-c]pyridin-2-carboxamide]
IC50 [1]: 100 to 1000 nM | IC50 [2]: 10 to 100 nM

CCNC(=O)c1cc2c(Cc3ccccc3)cn(C)c(=O)c2[nH]1 [Compound A10, 4-benzyl-N-ethylamino-6-methyl-7-oxo-6,7-dihydro-1H-pyrrolo[2,3-c]pyridin-2-carboxamide]
IC50 [1]: 100 to 1000 nM | IC50 [2]: 10 to 100 nM

CCNC(=O)c1cc2c(C(C)c3cccnc3)cn(C)c(=O)c2[nH]1 (centres unmarked) [Compound A11, N-ethyl-6-methyl-7-oxo-4-(1-(pyridin-3-yl)ethyl)-6,7-dihydro-1H-pyrrolo[2,3-c]pyridin-2-carboxamide]
IC50 [1]: 100 to 1000 nM | IC50 [2]: ≤ 10 nM

CC(c1ccccc1)c1cn(C)c(=O)c2[nH]c(C(=O)Nc3cnn(C)c3)cc12 (centres unmarked) [Compound A12, 6-methyl-N-(1-methyl-1H-pyrazol-4-yl)-7-oxo-4-(1-phenethyl)-6,7-dihydro-1H-pyrrolo[2,3-c]pyridin-2-carboxamide]
IC50 [1]: 100 to 1000 nM | IC50 [2]: ≤ 10 nM

CC(c1ccc2ccccc2c1)c1cn(C)c(=O)c2[nH]c(C(=O)Nc3cnn(C)c3)cc12 (centres unmarked) [Compound A13]
IC50 [1]: 100 to 1000 nM | IC50 [2]: ≤ 10 nM

CC(c1ccccc1)c1cn(C)c(=O)c2[nH]c(-c3cn[nH]c3)cc12 (centres unmarked) [Compound A15, 6-methyl-4-(1-phenethyl)-2-(1H-pyrazol-4-yl)-1,6-dihydro-7H-pyrrolo[2,3-c]pyridin-7-one]
IC50 [1]: 100 to 1000 nM | IC50 [2]: ≤ 10 nM

CC(c1ccccc1)c1cn(C)c(=O)c2[nH]c(-c3ccnc(C(F)(F)F)c3)cc12 (centres unmarked) [Compound A16, 6-methyl-4-(1-phenethyl)-2-(2-(trifluoromethyl)pyridin-4-yl)-1,6-dihydro-7H-pyrrolo[2,3-c]pyridin-7-one]
IC50 [1]: 100 to 1000 nM | IC50 [2]: 10 to 100 nM

CC(c1ccccc1)c1cn(C)c(=O)c2[nH]c(-c3cnn(C4COC4)c3)cc12 (centres unmarked) [Compound A17, 6-methyl-2-(1-(oxetan-3-yl)-1H-pyrazol-4-yl)-4-(1-phenethyl)-1,6-dihydro-7H-pyrrolo[2,3-c]pyridin-7-one]
IC50 [1]: 100 to 1000 nM | IC50 [2]: ≤ 10 nM

CC(c1ccccc1)c1cn(C)c(=O)c2[nH]c(-c3cnn(C)c3)cc12 (centres unmarked) [Compound A18, 6-methyl-2-(1-methyl-1H-pyrazol-4-yl)-4-(1-phenethyl)-1,6-dihydro-7H-pyrrolo[2,3-c]pyridin-7-one]
IC50 [1]: 100 to 1000 nM | IC50 [2]: ≤ 10 nM

CC(c1ccc(F)cc1)c1cn(C)c(=O)c2[nH]c(-c3cn[nH]c3)cc12 (centres unmarked) [Compound A19, 4-(1-(4-fluorophenyl)ethyl)-6-methyl-2-(1H-pyrazol-4-yl)-1,6-dihydro-7H-pyrrolo[2,3-c]pyridin-7-one]
IC50 [1]: 100 to 1000 nM | IC50 [2]: ≤ 10 nM

CC(c1ccccc1)c1cn(C)c(=O)c2[nH]c(-c3cnoc3)cc12 (centres unmarked) [Compound A20, 2-(isoxazol-4-yl)-6-methyl-4-(1-phenethyl)-1H-pyrrolo[2,3-c]pyridin-7(6H)-one]
IC50 [1]: 100 to 1000 nM | IC50 [2]: 10 to 100 nM

Cc1nocc1-c1cc2c(C(C)c3ccccc3)cn(C)c(=O)c2[nH]1 (centres unmarked) [Compound A21]
IC50 [1]: 100 to 1000 nM | IC50 [2]: 10 to 100 nM

CCNC(=O)c1cc2c(C(C)c3ccc4ccccc4c3)cn(C)c(=O)c2[nH]1 (centres unmarked) [Compound A22, N-ethyl-6-methyl-4-(1-(naphthalen-2-yl)ethyl)-7-oxo-6,7-dihydro-1H-pyrrolo[2,3-c]pyridin-2-carboxamide]
IC50 [1]: 100 to 1000 nM | IC50 [2]: 10 to 100 nM

CCNC(=O)c1cc2c(C(O)c3c(C)cccc3C)cn(C)c(=O)c2[nH]1 (centres unmarked) [Compound A23, (4-(2,6-dimethylphenyl)(hydroxy)methyl)-N-ethyl-6-methyl-7-oxo-6,7-dihydro-1H-pyrrolo[2,3-c]pyridin-2-carboxamide]
IC50 [1]: 100 to 1000 nM | IC50 [2]: 10 to 100 nM

CCNC(=O)c1cc2c(/C(=C/c3ccccc3)c3ccccc3)cn(C)c(=O)c2[nH]1 [Compound A24, (E)-4-(1,2-diphenylvinyl)-N-ethyl-6-methyl-7-oxo-6,7-dihydro-1H-pyrrolo[2,3-c]pyridin-2-carboxamide]
IC50 [1]: 100 to 1000 nM | IC50 [2]: 10 to 100 nM

CCNC(=O)c1cc2c(C(C)c3ccc4ccccc4c3)cn(C)c(=O)c2[nH]1 (centres unmarked) [Compound A25]
IC50 [1]: 100 to 1000 nM | IC50 [2]: 10 to 100 nM

CCNC(=O)c1cc2c(C(c3ccccc3)c3ccccc3O)cn(C)c(=O)c2[nH]1 (centres unmarked) [Compound A28]
IC50 [1]: 100 to 1000 nM | IC50 [2]: 10 to 100 nM

CCNC(=O)c1cc2c(-c3nc4ncccc4n3-c3cc(C)c(F)c(C)c3)cn(C)c(=O)c2[nH]1 [Compound A30, N-ethyl-4-(1-(4-fluoro-3,5-dimethylphenyl)-1H-imidazo[4,5-b]pyridin-2-yl)-6-methyl-7-oxo-6,7-dihydro-1H-pyrrolo[2,3-c]pyridin-2-carboxamide]
IC50 [1]: 10 to 100 nM | IC50 [2]: ≤ 10 nM
